The supplement of paper PMC8671470

Experiments:
Settings in all cases: 72 h
BV-173 = test system: BV-173
Procedure, shortened: (§1)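 Fifteen myeloid leukaemia lines were incubated for 72 h at 37 °C with 5% CO2 across five tenfold doses from 1 to 10,000 nM, in duplicate. ATP luminescence was normalised to vehicle and to a positive control at 10 µM and fitted with a four-parameter log-logistic model. The IC50 came from these dose–response fits.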

HEL = test system: HEL
Procedure, shortened: as §1

HL-60 = test system: HL-60
Procedure, shortened: as §1

K-562 = test system: K-562
Procedure, shortened: as §1

KCL-22 = test system: KCL-22
Procedure, shortened: as §1

KG-1 = test system: KG-1
Procedure, shortened: as §1

KU-812 = test system: KU-812
Procedure, shortened: as §1

LAMA-84 = test system: LAMA-84
Procedure, shortened: as §1

ML-2 = test system: ML-2
Procedure, shortened: as §1

MOLM-13 = test system: MOLM-13
Procedure, shortened: as §1

MV4-11 = test system: MV4-11
Procedure, shortened: as §1

Mono-Mac-6 = test system: Mono-Mac-6
Procedure, shortened: as §1

NOMO-1 = test system: NOMO-1
Procedure, shortened: as §1

SHI-1 = test system: SHI-1
Procedure, shortened: as §1

THP-1 [1] = test system: THP-1
Procedure, shortened: as §1

THP-1 [2] = assay: cell viability (% survival relative to DMSO control, bortezomib = 0%); higher = less cytotoxic
Procedure, shortened: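 Fifteen myeloid leukaemia cell lines were exposed to compounds at 1, 10, 100, 1000 or 10000 nM in 384-well plates for 72 h at 37 °C and 5% CO2. Viability was read by CellTiter-Glo luminescence and normalised, with vehicle as 100% and a 10 µM positive control as 0%. Values are percent survival averaged over duplicates.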

| SMILES | IC50 (cell viability) (BV-173) [µM] | IC50 (cell viability) (HEL) [µM] | IC50 (cell viability) (HL-60) [µM] | IC50 (cell viability) (K-562) [µM] | IC50 (cell viability) (KCL-22) [µM] | IC50 (cell viability) (KG-1) [µM] | IC50 (cell viability) (KU-812) [µM] | IC50 (cell viability) (LAMA-84) [µM] | IC50 (cell viability) (ML-2) [µM] | IC50 (cell viability) (MOLM-13) [µM] | IC50 (cell viability) (MV4-11) [µM] | IC50 (cell viability) (Mono-Mac-6) [µM] | IC50 (cell viability) (NOMO-1) [µM] | IC50 (cell viability) (SHI-1) [µM] | IC50 (cell viability) (THP-1 [1]) [µM] | cell viability (THP-1 [2]; 1 nM) [%] | cell viability (THP-1 [2]; 10 nM) [%] | cell viability (THP-1 [2]; 100 nM) [%] | cell viability (THP-1 [2]; 1000 nM) [%] | cell viability (THP-1 [2]; 10000 nM) [%] |
| --- | --- | --- | --- | --- | --- | --- | --- | --- | --- | --- | --- | --- | --- | --- | --- | --- | --- | --- | --- | --- |
| COc1cc2c(NC3CCN(C)CC3)nc(N3CCCN(C)CC3)nc2cc1OCCCN(C)C [UNC0224] | > 10 | > 10 | > 10 | > 10 | > 10 | > 10 | > 10 | > 10 | > 10 | > 10 | > 10 | > 10 | > 10 | > 10 | > 10 | 103 | 102 | 93.8 | 93 | 79.7 |
| C[C@]12CC[C@H](O)CC1=CC[C@@H]1[C@@H]2CC[C@]2(C)C(c3cccnc3)=CC[C@@H]12 [Abiraterone] | > 10 | > 10 | > 10 | > 10 | > 10 | > 10 | > 10 | > 10 | > 10 | > 10 | > 10 | > 10 | > 10 | > 10 | > 10 | 99.4 | 102 | 104 | 113 | 108 |
| Cc1c(-c2ccccc2)oc2c(C(=O)OCCN3CCCCC3)cccc2c1=O.Cl [Flavoxate] | > 10 | > 10 | > 10 | > 10 | > 10 | > 10 | > 10 | > 10 | > 10 | > 10 | > 10 | > 10 | > 10 | > 10 | > 10 | 93.5 | 97.7 | 93.5 | 96.6 | 109 |
| Clc1ccc(COC(Cn2ccnc2)c2ccc(Cl)cc2Cl)cc1 (stereo not given) [Econazole] | 2.28 | > 10 | 3.64 | 2.39 | 6.71 | 6.84 | 7.24 | > 10 | 8.94 | 0.925 | 1.08 | > 10 | > 10 | > 10 | > 10 | 102 | 94.9 | 95.7 | 87.9 | 62 |
| Sc1ncnc2nc[nH]c12 [6-mercaptopurine] | 0.527 | 1.91 | 0.964 | 0.732 | 1.01 | > 10 | 2.51 | 1.33 | 1.1 | 0.907 | 0.332 | 1.03 | 0.441 | 1.52 | > 10 | 98.3 | 106 | 98.1 | 90.6 | 85.2 |
| CCOC(=O)[C@H]1O[C@@H]1C(=O)N[C@@H](CC(C)C)C(=O)NCCC(C)C [Aloxistatin] | > 10 | > 10 | > 10 | > 10 | > 10 | > 10 | > 10 | > 10 | > 10 | > 10 | > 10 | > 10 | 5.52 | > 10 | > 10 | 104 | 110 | 96.9 | 95.2 | 95.7 |
| OCCN1CCN(CCCN2c3ccccc3Sc3ccc(Cl)cc32)CC1 [Perphenazine] | 5.91 | > 10 | 5.06 | 2.87 | 8.23 | 8.85 | 6.71 | 9.39 | 7.38 | 5.77 | 3.54 | > 10 | > 10 | > 10 | > 10 | 95.7 | 99.2 | 103 | 99.1 | 50.2 |
| C[C@]12O[C@H](C[C@]1(O)CO)n1c3ccccc3c3c4c(c5c6ccccc6n2c5c31)CNC4=O [Lestaurtinib] | 0.0201 | 0.0504 | 0.0912 | 0.182 | 0.149 | 0.0227 | 0.0467 | 0.0512 | 0.139 | 0.00461 | 0.00331 | 0.0143 | 0.188 | 0.0633 | 0.848 | 94.4 | 105 | 87.2 | 46 | 0.505 |
| O=c1c2ccccc2[se]n1-c1ccccc1 [Ebselen] | > 10 | > 10 | > 10 | > 10 | > 10 | > 10 | > 10 | > 10 | > 10 | > 10 | > 10 | > 10 | > 10 | > 10 | > 10 | 94.9 | 95.1 | 93 | 98.7 | 81.8 |
| O=C(O)C(Cl)Cl [Dichloroacetate] | > 10 | > 10 | > 10 | > 10 | > 10 | > 10 | > 10 | > 10 | > 10 | > 10 | > 10 | > 10 | > 10 | > 10 | > 10 | 100 | 98 | 103 | 95.8 | 102 |
| O=P(O)(O)C(O)(Cn1ccnc1)P(=O)(O)O [Zoledronic acid] | > 10 | > 10 | > 10 | > 10 | > 10 | > 10 | > 10 | > 10 | > 10 | > 10 | > 10 | > 10 | > 10 | > 10 | > 10 | 104 | 105 | 91.5 | 89.1 | 99.5 |
| CN(C/C=C/C#CC(C)(C)C)Cc1cccc2ccccc12 [Terbinafine] | > 10 | > 10 | > 10 | > 10 | > 10 | > 10 | > 10 | > 10 | > 10 | > 10 | > 10 | > 10 | > 10 | > 10 | > 10 | 102 | 94.6 | 92 | 100 | 94.4 |
| [N-]=[N+]=CC(=O)CC[C@H](N)C(=O)O [6-Diazo-5-oxo-L-norleucine] | > 10 | > 10 | > 10 | > 10 | > 10 | > 10 | > 10 | > 10 | > 10 | > 10 | > 10 | > 10 | > 10 | > 10 | > 10 | 98.1 | 96.7 | 100 | 102 | 106 |
| Cc1ccc(S(=O)(=O)NC2c3ccccc3Oc3ccccc32)cc1 [AH-7614] | > 10 | > 10 | > 10 | > 10 | > 10 | > 10 | > 10 | > 10 | > 10 | > 10 | > 10 | > 10 | > 10 | > 10 | > 10 | 96.9 | 96.7 | 99 | 96.7 | 100 |
| O=C1Nc2ccccc2/C1=C\NCCc1ccc(O)c(O)c1 [AC1NZZMF] | > 10 | > 10 | > 10 | > 10 | > 10 | > 10 | > 10 | > 10 | > 10 | > 10 | > 10 | > 10 | > 10 | > 10 | > 10 | 108 | 103 | 100 | 108 | 79.9 |
| CCOc1ccc(Cc2cc([C@@H]3O[C@H](CO)[C@@H](O)[C@H](O)[C@H]3O)ccc2Cl)cc1 [Dapagliflozin] | > 10 | > 10 | > 10 | > 10 | > 10 | > 10 | > 10 | > 10 | > 10 | > 10 | > 10 | > 10 | > 10 | > 10 | > 10 | 88.4 | 100 | 86.4 | 101 | 90.1 |
| C=CCc1ccc2c(c1O)C(=O)c1ccccc1C2=O [R162] | > 10 | > 10 | > 10 | > 10 | > 10 | > 10 | > 10 | > 10 | > 10 | > 10 | > 10 | > 10 | > 10 | > 10 | > 10 | 101 | 99.1 | 102 | 109 | 109 |
| C[C@H]1O[C@@H](O[C@H]2[C@@H](O)C[C@H](O[C@H]3[C@@H](O)C[C@H](O[C@H]4CC[C@@]5(C)[C@H](CC[C@@H]6[C@@H]5C[C@@H](O)[C@]5(C)[C@@H](C7=CC(=O)OC7)CC[C@]65O)C4)O[C@@H]3C)O[C@@H]2C)C[C@H](O)[C@@H]1O [Digoxin] | 0.0361 | 0.102 | 0.0342 | 0.0855 | 0.0555 | 0.0639 | 0.0647 | 0.0546 | 0.0386 | 0.034 | 0.0402 | 0.0424 | 0.123 | 0.0453 | 0.0752 | 85.8 | 95.6 | 32.6 | 0.766 | -0.172 |
| CC(C)Cc1sc(N)nc1-c1ccc(P(=O)(O)O)o1 | > 10 | > 10 | > 10 | > 10 | > 10 | > 10 | > 10 | > 10 | > 10 | > 10 | > 10 | > 10 | > 10 | > 10 | > 10 | 107 | 103 | 98.3 | 104 | 95.5 |
| O=C(O)c1nn(Cc2ccc(Cl)cc2Cl)c2ccccc12 [Lonidamine] | > 10 | > 10 | > 10 | > 10 | > 10 | > 10 | > 10 | > 10 | > 10 | > 10 | > 10 | > 10 | > 10 | > 10 | > 10 | 107 | 97 | 102 | 99.3 | 101 |
| C1CCC(C(CC2CCCCN2)C2CCCCC2)CC1.O=C(O)/C=C\C(=O)O (stereo not given) [Perhexiline] | 3.34 | 3.23 | 2.85 | 3.35 | 3.63 | 3.23 | 3.99 | 4.23 | 3.43 | 2.66 | 2.73 | 3.55 | 6.5 | 3.28 | 2.55 | 101 | 93.8 | 100 | 89 | -0.129 |
| C#Cc1cnc(O)nc1O [Eniluracil] | > 10 | > 10 | > 10 | > 10 | > 10 | > 10 | > 10 | > 10 | > 10 | > 10 | > 10 | > 10 | > 10 | > 10 | > 10 | 97.4 | 102 | 109 | 110 | 102 |
| COc1c(C)c2c(c(O)c1C/C=C(\C)CCC(=O)O)C(=O)OC2 [Mycophenolic acid] | 0.679 | 1.01 | 0.652 | 0.561 | 0.289 | 2.34 | 0.954 | 0.771 | 0.333 | 0.183 | 0.507 | 1.83 | 2.55 | 2.52 | > 10 | 112 | 95.7 | 103 | 97.5 | 59.2 |
| Cc1noc2c1-c1ccccc1C(c1ccc(Cl)cc1)=N[C@H]2CC(N)=O [CPI-0610] | 0.538 | 1.52 | 0.2 | 0.377 | 0.624 | 0.135 | 0.422 | 1.59 | 1.26 | 0.274 | 0.146 | 0.142 | 0.349 | 0.5 | 0.765 | 103 | 95.9 | 88.6 | 51.1 | 40.2 |
| Nc1ncnc2c1ncn2[C@@H]1O[C@H](CSCC[C@H](N)C(=O)O)[C@@H](O)[C@H]1O [S-Adenosyl Homocysteine] | > 10 | > 10 | > 10 | > 10 | > 10 | > 10 | > 10 | > 10 | > 10 | > 10 | > 10 | > 10 | > 10 | > 10 | > 10 | 103 | 90.8 | 100 | 98.9 | 111 |
